# Experimental data reported in patent US11285144B2, “Use of CDK8 inhibitors to treat diseases of inflammation and autoimmunity” (THE BROAD INSTITUTE, INC., priority 2016, dated 2022).
# “Also recorded” adds a separate entry of the source.
# Columns and labels:
# [1] = system: Zymosan A-stimulated BMDCs; test: Cytokine production by Zymosan A-stimulated BMDCs; format: cell-based, mouse; settings: zymosan A-stimulated BMDCs
# Source text: Towards the goal of identifying new mechanisms of IL-10 regulation, 59,346 small molecules were screened for the ability to enhance IL-10 production by activated bone marrow-derived dendritic cells (BMDCs) using a high-throughput assay developed previously (Sundberg et al., PNAS 111:12468-12473, 2014). Compounds were derived from both commercial collections and structurally and skeletally diverse libraries prepared by diversity-oriented synthesis (DOS). More than 60 hit compounds were identified that reproducibly enhance IL-10 production in a concentration-dependent manner (Table 1). Three distinct chemotypes were prioritized for follow-up based on potency and an initial analysis of structure-activity relationship (SAR) with respect to core scaffold, stereochemistry and side chains (FIG. 2a).
# (§1) The pyridinyl tetrahydroquinoline BRD6989 (10) emerged as a prioritized hit in the screen (FIG. 2a and Table 2). […] Thus, BRD6989 enhances IL-10 production in activated human and murine macrophages and dendritic cells by a mechanism that appears most pronounced following stimulation of toll-like receptors-7 (TLR7) and TLR8 by R848.
# tubulin = test: Tubulin polymerization, cell-free assay; format: biochemical
# Source text: FIG. 4—DOS-derived IL-10 hit BRD0326 perturbs microtubule dynamics. (a) Chemical structure of BRD0326. […] (c) BRD0326's IL-10 enhancing activity depends on its stereochemistry (EC50's=mean of 2 independent experiments). (d) Transcriptional responses elicited by BRD0326 correlate with those induced by small molecule modulators of microtubule dynamics.
# R848-stimulated BMDCs [2] = test: Cytokine production by R848-stimulated BMDCs; format: cell-based, mouse
# Source text: as §1
# (§2) Pre-treatment with these CDK8/19 inhibitors recapitulated the IL-10 potentiating activity of BRD6989 in both BMDCs (FIG. 9b) along with human DCs derived from two independent donors in the context of R848 stimulation (FIGS. 9c and 10a).
# [3] = system: human, monocyte-derived DCs; test: IL-10 production in human monocyte-derived DCs stimulated with R848; format: cell-based
# Source text: as §1, §2
# R848-stimulated BMDCs [4] = test: IL-10 mRNA levels in BMDCs following R848 stimulation; format: cell-based, mouse; settings: pre-treatment, then R848 stimulation
# Method: FIG. 5—Cellular activities of the IL-10 hit BRD6989. […] (d) Effect of BRD6989 on IL-10 production in human DCs stimulated with R848 (each point corresponds to mean±S.D.; n=3 biological replicates from 1 independent experiment using cells derived from 1 donor). (e) Chemical structure of the pan-SIK inhibitor HG-9-91-01. (f) Effect of pre-treating BMDCs with HG-9-91-01 (0.5 μM) or BRD6989 (5 μM) on IL-10 mRNA levels following stimulation with R848 (each point corresponds to mean±S.D.; n=4 biological replicates from 1 independent experiment; *, P<0.05; ***, P<0.001 using unpaired, two-tailed Student's t test). Data from all panels is representative of at least 2 independent experiments.
# Based on its ability to selectively potentiate IL-10 production by a mechanism that appears temporally distinct from CREB activation, BRD6989 was prioritized for MOA studies.
# [5] = system: BMDCs stimulated with R848 or Zymosan A; test: Co-treatment of BMDCs with T-5224, cytokine production; format: cell-based, mouse; settings: T-5224 100 μM
# Method: FIG. 13—Modulation of c-Jun/AP-1 links CDK8 inhibition to enhanced IL-10 production. (a) CDK8 responsive signaling pathways in activated BMDMs as identified by the highly parallel reporter gene assay TF-Seq. Reporter data is integrated for time points between 15 min 4 hr from 1 independent experiment. Dashed lines correspond to FDR<0.05 as corrected by Benjamin-Hochberg testing. (b) Relative to all highly expressed genes, JunB binding sites are enriched among the subset of genes induced by CDK8 inhibition (see Online Methods). […] Data is representative of 2 independent experiments. […] Data is representative of 2 independent experiments. […] CpG, synthetic CpG-containing oligonucleotide; FLA, flagellin A; LPS, lipopolysaccharide; MDP, muramyldipeptide; Pam3cys, synthetic triacylated lipoprotein; poly(I:C), polyinosinic-polycytidylic acid; SeV, Sendai virus; TDB, trehalose-6,6-dibehenate.
# FIG. 15—CDK8 inhibition enhances AP-1 activity during innate immune activation. (a) Time course of AP-1 reporter activity in BMDMs pre-treated with dCA (0.1 μM) or BRD6989 (5 μM) prior to stimulation with the indicated viruses or microbial ligands for the indicated time points (each point corresponds to TF-Seq reporter data derived from 1 independent experiment). […] Data is from 1 independent experiment. (c) Chemical structure of the c-Fos/AP-1 inhibitor T-5224. […] Data in panels (c,d) are representative of 2 independent experiments. CpG, synthetic CpG-containing oligonucleotide; FLA, flagellin; LPS, lipopolysaccharide; MDP, muramyldipeptide; Pam3cys, synthetic triacylated lipoprotein; Poly(I:C), polyinosinic-polycytidylic acid; SeV, Sendai virus; TDB, trehalose-6,6-dibehenate.
# Given the presence of an AP1 consensus motif in IL-10 and evidence that potentiation of MAP kinase signaling can increase IL-10 production (Saraiva et al., Nat Rev Immunol 10:170-81, 2010; Wang et al., Nat Commun 5:3479, 2014; Na et al., Science Signaling 8:2015), it was hypothesized that increased AP-1 activity resulting from reduced c-Jun Ser243 phosphorylation may mediate activation of IL-10 following CDK8 inhibition.
structure (smiles),measurement,setting,value
CS(=O)(=O)N1[C@H](C#N)[C@H](c2ccc(C#Cc3cccc(F)c3)cc2)[C@H]1CO [BRD0326],IL-10 production,[1],potentiates IL-10 production by Zymosan A-stimulated BMDCs to a similar degree as PGE2
same,tubulin / microtubule polymerization,tubulin,suppressed microtubule polymerization; also recorded: suppresses tubulin polymerization
Cn1ncc2cc(-c3cnc(N)c(Cl)c3N3CCC4(CCNC4=O)CC3)ccc21 [CCT251921],IL-10 production,R848-stimulated BMDCs [2],recapitulate the IL-10 enhancing activity of BRD6989
same,IL-10 production,[3],recapitulate IL-10 potentiation by BRD6989
"COc1ccc(N(C(=O)Nc2c(C)cccc2C)c2cc(Nc3ccc(N4CCN(C)CC4)cc3)ncn2)c(OC)c1 [HG-9-91-01, reference compound]",IL-10 mRNA levels,R848-stimulated BMDCs [4],elevate Il-10 mRNA immediately following microbial stimulation without greatly extending the duration of this response
O=C(O)CCc1cc(C(=O)c2ccc(OC3CCCC3)cc2O)ccc1OCc1ccc2c(=O)[nH]oc2c1 [T-5224],production of IL-6 or TNFα on co-incubation with dCA,[5]; R848,does not affect production of IL-6 or TNFα
same,IL-10 production on co-treatment with dCA,[5]; R848 or Zymosan A,suppressed IL-10 production; also recorded: suppresses the IL-10 enhancing activity of dCA
same,IL-10 increase induced by HG-9-91-01 on co-treatment,[5]; Zymosan A,did not affect; also recorded: does not affect up-regulation of IL-10 or suppression of IL-6
CN(C)C/C=C/C(=O)Nc1ccc(C(=O)Nc2cccc(Nc3ncc(Cl)c(-c4c[nH]c5ccccc45)n3)c2)cc1 [THZ-1],IL-10 production,R848-stimulated BMDCs [2],not enhanced
